Tests used:
[1] = tested on: S. pneumoniae D39V; assay: fitness (endpoint OD595 vs no drug) (fraction); higher = more growth
Summary of the method: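 Fitness was measured as bacterial growth in 384-well plates inoculated at OD595 0.01 (30 µl, or 55 µl for S. pneumoniae). Media were TSB, LB Lennox or CY, at 37 °C. OD595 was read every 30 min for 14 h and background-subtracted against the first reading. Fitness is OD595 at the transition into stationary phase divided by the robust mean of no-drug control wells, capped at 1.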

[2] = tested on: B. subtilis 168; assay: Bliss interaction score (quartile over a dose matrix) (fitness difference); higher = more antagonism (negative = synergy)
Summary of the method: (§1)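 OD595 was read at entry into stationary phase and expressed relative to the robust mean of the no-drug wells on the same plate, capped at 1. The resulting ratio is the fitness value. The Bliss score, observed fitness minus product-based expected fitness with single-drug fitness inferred from combinations, is summarised by quartiles over technical, biological and donor/recipient replicates.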

[3] = tested on: S. aureus DSM 20231; assay: as above
Summary of the method: as §1

[4] = tested on: S. aureus Newman; assay: as above
Summary of the method: as §1

[5] = tested on: S. pneumoniae D39V; assay: as above
Summary of the method: as §1
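For Bliss interaction score (quartile over a dose matrix) in this document: first quartile when negative (synergy) and third quartile when positive (antagonism).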

CC1(C)S[C@@H]2[C@H](NC(=O)[C@H](N)c3ccc(O)cc3)C(=O)N2[C@H]1C(=O)O [Amoxicillin] + CCC(C)C1C(=O)NC(=C)C(=O)NC(C(=O)NC(CSCC(C(=O)N1)NC(=O)/C(=C/C)/NC(=O)C(C(C)CC)N)C(=O)NC2C(SCC(NC(=O)CNC(=O)C3CCCN3C2=O)C(=O)NC(CCCCN)C(=O)NC4C(SCC(NC(=O)CNC(=O)C(NC(=O)C(NC(=O)C(NC(=O)CNC4=O)C)CC(C)C)CCSC)C(=O)NC(CC(=O)N)C(=O)NC(CCSC)C(=O)NC(CCCCN)C(=O)NC5C(SCC6C(=O)NC(C(=O)NC(CSC(C(C(=O)N6)NC(=O)C(NC5=O)C)C)C(=O)NC(CO)C(=O)NC(C(C)CC)C(=O)NC(CC7=CN=CN7)C(=O)NC(C(C)C)C(=O)NC(=C)C(=O)NC(CCCCN)C(=O)O)CC8=CN=CN8)C)C)C)CC(C)C [Nisin]
fitness, [1], main component drawn
Details	partner 0.4275 µg/mL	partner 0.855 µg/mL	partner 1.6 µg/mL	partner 1.71 µg/mL	partner 3.2 µg/mL	partner 6.4 µg/mL
first compound 0.0008 µg/mL	≥ 1	0.534	–	0.106	–	–
first compound 0.0015 µg/mL	0.981	–	0.135	0.119	0.0433	0.0441
first compound 0.003 µg/mL	0.953	0.705	0.38	0.13	0.0777	0.0249

fitness, [1], one replicate, main component drawn
Details	partner 1.6 µg/mL	partner 3.2 µg/mL	partner 6.4 µg/mL
first compound 0.0008 µg/mL	0.0458	0.094	0.0228
first compound 0.006 µg/mL	0.289	0.0544	0.0443

main component drawn
Details	Bliss interaction score
[2]	-0.105
[3]	-0.111
[4]	-0.0715
[5]	0.09

CC1(C)S[C@@H]2[C@H](NC(=O)[C@H](N)c3ccc(O)cc3)C(=O)N2[C@H]1C(=O)O [Amoxicillin] + CC[C@H]1OC(=O)[C@H](C)[C@@H](O[C@H]2C[C@@](C)(OC)[C@@H](O)[C@H](C)O2)[C@H](C)[C@@H](O[C@@H]2O[C@H](C)C[C@H](N(C)C)[C@H]2O)[C@](C)(OC)C[C@@H](C)C(=O)[C@H](C)[C@@H](O)[C@]1(C)O [Clarithromycin]
fitness, [1], one replicate
Details	partner 0.007812 µg/mL	partner 0.01562 µg/mL	partner 0.03125 µg/mL	partner 0.0625 µg/mL	partner 0.125 µg/mL	partner 0.25 µg/mL
first compound 0.0008 µg/mL	0.921	0.834	0.67	0.748	0.666	0.364
first compound 0.0015 µg/mL	0.844	0.836	0.633	–	–	–
first compound 0.003 µg/mL	0.789	0.772	0.546	–	–	–
first compound 0.006 µg/mL	–	–	–	0.436	0.303	0.149

fitness, [1]
Details	partner 0.0625 µg/mL	partner 0.07 µg/mL	partner 0.125 µg/mL	partner 0.14 µg/mL	partner 0.25 µg/mL	partner 0.28 µg/mL
first compound 0.0008 µg/mL	–	0.212	–	0.157	–	0.0725
first compound 0.0015 µg/mL	0.681	0.24	0.567	0.133	0.366	0.0875
first compound 0.003 µg/mL	0.684	0.126	0.551	0.104	0.357	0.0502

Details	Bliss interaction score
[2]	0.0461
[3]	-0.0818
[4]	-0.0752
[5]	0.177

CC1(C)S[C@@H]2[C@H](NC(=O)[C@H](N)c3ccc(O)cc3)C(=O)N2[C@H]1C(=O)O [Amoxicillin] + CN(C)C(=O)C(CCN1CCC(O)(c2ccc(Cl)cc2)CC1)(c1ccccc1)c1ccccc1 [Loperamide]
fitness, [1]
Details	partner 17.14 µg/mL	partner 20 µg/mL	partner 34.28 µg/mL	partner 40 µg/mL	partner 80 µg/mL
first compound 0.0008 µg/mL	0.993	–	0.945	–	–
first compound 0.0015 µg/mL	0.977	≥ 1	0.935	≥ 1	≥ 1
first compound 0.003 µg/mL	0.868	0.999	0.839	0.994	0.991

fitness, [1], one replicate
Details	first compound 0.0008 µg/mL	first compound 0.0015 µg/mL	first compound 0.003 µg/mL	first compound 0.006 µg/mL
partner 20 µg/mL	≥ 1	–	–	0.442
partner 40 µg/mL	≥ 1	–	–	0.448
partner 68.57 µg/mL	≥ 1	0.934	0.894	–
partner 80 µg/mL	≥ 1	–	–	0.212

Details	Bliss interaction score
[2]	0.0397
[3]	-0.117
[4]	0.0589
[5]	0.0558

CC1(C)S[C@@H]2[C@H](NC(=O)[C@H](N)c3ccc(O)cc3)C(=O)N2[C@H]1C(=O)O [Amoxicillin] + CO[C@H]1/C=C/O[C@@]2(C)Oc3c(C)c(O)c4c(O)c(c(/C=N/N5CCN(C)CC5)c(O)c4c3C2=O)NC(=O)/C(C)=C\C=C\[C@H](C)[C@H](O)[C@@H](C)[C@@H](O)[C@@H](C)[C@H](OC(C)=O)[C@@H]1C [Rifampicin]
[1], partner 0.025 µg/mL
Details	fitness
first compound 0.0008 µg/mL	0.925
first compound 0.0015 µg/mL	0.917
first compound 0.003 µg/mL	0.905

[1], one replicate
Details	fitness
first compound 0.0008 µg/mL, partner 0.2 µg/mL	0
first compound 0.0015 µg/mL, partner 0.2 µg/mL	0
first compound 0.003 µg/mL, partner 0.2 µg/mL	0
first compound 0.006 µg/mL, partner 0.025 µg/mL	0.468
first compound 0.006 µg/mL, partner 0.05 µg/mL	0.546
first compound 0.006 µg/mL, partner 0.1 µg/mL	0.261

Details	Bliss interaction score
[2]	0.0837
[3]	0.133
[4]	0.073
[5]	0.0783

CC1(C)S[C@@H]2[C@H](NC(=O)[C@H](N)c3ccc(O)cc3)C(=O)N2[C@H]1C(=O)O [Amoxicillin] + C[C@@H](O)[C@H]1C(=O)N2C(C(=O)O)=C(SCCNC=N)C[C@H]12 [Imipenem]
fitness, [1], one replicate
Details	partner 0.005 µg/mL	partner 0.01 µg/mL	partner 0.02 µg/mL
first compound 0.0008 µg/mL	0.971	0.931	0.907
first compound 0.006 µg/mL	0.431	0.412	0.373

fitness, [1]
Details	partner 0.005 µg/mL	partner 0.0065 µg/mL	partner 0.01 µg/mL	partner 0.013 µg/mL	partner 0.02 µg/mL	partner 0.026 µg/mL
first compound 0.0008 µg/mL	–	0.934	–	0.908	–	0.875
first compound 0.0015 µg/mL	0.928	0.927	0.934	0.919	0.907	0.859
first compound 0.003 µg/mL	0.888	0.842	0.882	0.869	0.866	0.796

Details	Bliss interaction score
[2]	0.189
[3]	-0.0413
[4]	0.0343
[5]	-0.058

From the supplement of paper PMC10627819
